Tests used:
human cyclin D1-CDK4 = human cyclin D1-CDK4 (Homo sapiens, UniProt P11802); assay: FlashPlate kinase assay, cyclin D1-CDK4, Rb substrate; format: biochemical; conditions: recombinant cyclin D1-CDK4, Rb phosphorylation, 1 μM ATP
Procedure: (§1) To determine inhibition of Cdk4, Cdk2 and Cdk1 activity, kinase assays were conducted using FlashPlate™ assays (NEN™-Life Science Products). FlashPlate assays were performed using recombinant human cyclin B-CDK1, human cyclin E-CDK2 or human cyclin D1-CDK4 complexes. GST-cyclinE (GST-cycE), CDK2, GST-cyclinB (GST-cycB), CDK1, GST-CDK4 and cyclin D1 (cycD1) cDNA clones in baculovirus vectors were provided by Dr. W. Harper at the Baylor College of Medicine, Houston, Tex. Proteins were co-expressed in High Five™ insect cells and the complex was purified on glutathione Sepharose resin (Pharmacia, Piscataway, N.J.) as previously described (Harper, J. W. et al. Cell 1993, 75, 805-816). A 6×-Histidine tagged truncated form of retinoblastoma (Rb) protein (amino acid 386-928) was used as the substrate for the cycD1-CDK4, cycB-CDK1 and the cycE-CDK2 assays (the expression plasmid was provided by Dr. Veronica Sullivan, Department of Molecular Virology, Roche Research Centre, Welwyn Garden City, United Kingdom). The Rb protein is a natural substrate for phosphorylation by CDK4, CDK2 and CDK1 (see Herwig and Strauss Eur. J. Biochem. Vol. 246 (1997) pp. 581-601 and the references cited therein).
(§2) The expression of the 62 Kd protein was under the control of an IPTG inducible promoter in an M15 E. coli strain. Cells were lysed by sonication and purification was carried out by binding lysates at pH 8.0 to a Ni-chelated agarose column pretreated with 1 mM imidazole. The resin was then washed several times with incrementally decreasing pH buffers to pH 6.0, and eluted with 500 mM imidazole. Eluted protein was dialysed against 20 mM HEPES pH 7.5, 30% glycerol, 200 mM NaCl, and 1 mM DTT. Purified Rb fusion protein stocks were quantitated for protein concentration, aliquoted, and stored at −70° C.
(§3) For all three kinase assays reported herein, 96-well FlashPlates were coated with Rb protein at 10 μg/ml, using 100 μl per well. Plates were incubated at 4° C. overnight or at room temperature for 3 hours on a shaker. To control for nonspecific phosphorylation, one row of wells was coated with 100 μl/well coating buffer (20 mM HEPES, 0.2 M NaCl). Plates were then washed twice with wash buffer (0.01% Tween 20 in phosphate-buffered saline). Compounds to be tested (“test compounds”) were added to the wells at 5×final concentration. Reactions were initiated by immediate addition of 40 μl reaction mix (25 mM HEPES, 20 mM MgCl2, 0.002% Tween 20, 2 mM DTT, 1 μM ATP, 4 nM ^33P-ATP) and a sufficient amount of enzyme to give counts that were at least 10-fold above background. Plates were incubated at room temperature on a shaker for 30 minutes. Plates were washed four times with the wash buffer, sealed, and counted on the TopCount scintillation counter (Packard Instrument Co., Downers Grove, Ill.]. The percent inhibition of Rb phosphorylation, which is a measure of the inhibition of CDK activity, was determined according to the following formula: [formula]
(§4) where “test compound” refers to the average counts per minute of the test duplicates, “nonspecific” refers to the average counts per minute when no CyclinD/Cdk4, etc., was added, and “total” refers to the average counts per minute when no compound was added. The IC50 value is the concentration of test compound that reduces by 50% the protein-kinase induced incorporation of the radiolabel under the test conditions described.

human cyclin E-CDK2 = human cyclin E-CDK2 (Homo sapiens, UniProt P24941); assay: FlashPlate kinase assay, cyclin E-CDK2, Rb substrate; format: biochemical; conditions: recombinant cyclin E-CDK2, Rb phosphorylation, 1 μM ATP
Procedure: as §1, §2, §3, §4

human cyclin B-CDK1 = human cyclin B-CDK1 (Homo sapiens, UniProt P06493); assay: FlashPlate kinase assay, cyclin B-CDK1, Rb substrate; format: biochemical; conditions: recombinant cyclin B-CDK1, Rb phosphorylation, 1 μM ATP
Procedure: as §1, §2, §3, §4

[1] = tested on: HCT116, a colorectal carcinoma cell line; assay: Tetrazolium dye proliferation assay (MTT assay); format: cell-based; conditions: inhibition of cell proliferation
Procedure: Proliferation was evaluated by the tetrazolium dye assay according to the procedure of Denizot and Lang (Denizot, F. and Lang, R. J Immunol Methods 1986, 89, 271-277). The cell line used was HCT116, a colorectal carcinoma cell line obtained from the American Type Cell Culture Collection (ATCC; Rockville, Md.). The cells were grown in McCoy's 5A medium supplemented with 10% FCS and L-glutamine.
Cells were plated at the appropriate seeding density to give logarithmic growth over the course of the assay in a 96-well tissue culture plate. Plates were incubated overnight at 37° C. in a humidified incubator with 5% CO2. The next day, test compounds were serially diluted to four times the final concentration in the appropriate medium containing 1.2% DMSO. One-fourth final volume of each dilution was added in duplicate to the plates containing cells. The same volume of 1.2% DMSO in medium was added to a row of “control wells” such that the final concentration of DMSO in each well was 0.3%. Wells to which no cells were added served as the “blank.” Wells to which no inhibitor was added served as “no inhibitor control.” The plates were) returned to the incubator, and at set time points (determined by their growth curves) plates were analyzed as described below.
3-(4,5-dimethylthiazole-2-yl)-2,5-diphenyl-2H-tetrazolium bromide (thiazolyl blue; MTT; Sigma) was added to each well to yield a final concentration of 1 mg/ml. Plates were returned to the incubator for 2.5-3 hours at 37° C. The MTT-containing medium was removed and the resulting formazan metabolite was solubilized in 100% ethanol with shaking for 15 minutes at room temperature. Absorbance readings were taken in a microtiter plate reader (Dynatech and Molecular Devices plate readers were used interchangeably) at a wavelength of 570 nm with a 650 nm reference. Percent inhibition (% INH) is calculated by subtracting the absorbance of the blank well from all wells, then subtracting the ratio of the average absorbance of each test duplicate (SAVE) by the average of the controls (CAVE) from 1.00. The final number is then multiplied by 100 (% INH=(1.00−SAVE/CAVE)×100). The concentration at which 50% inhibition of cell proliferation is obtained (the IC50) is determined from the linear regression of a plot of the logarithm of the concentration versus percent inhibition.

[2] = Homo sapiens, HCT-116, HCT116 cells

Sequence of human cyclin D1-CDK4 (P11802 whole entry): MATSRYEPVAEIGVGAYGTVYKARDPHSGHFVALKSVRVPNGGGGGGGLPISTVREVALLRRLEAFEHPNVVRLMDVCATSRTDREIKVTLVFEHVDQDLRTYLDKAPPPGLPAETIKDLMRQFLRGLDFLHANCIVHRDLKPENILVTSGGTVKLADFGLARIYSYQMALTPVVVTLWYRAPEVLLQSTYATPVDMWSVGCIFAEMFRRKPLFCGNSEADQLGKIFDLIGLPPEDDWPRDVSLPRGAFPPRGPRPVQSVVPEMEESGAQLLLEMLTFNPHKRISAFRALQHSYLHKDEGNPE
Sequence of human cyclin D1-CDK4 (P24385 whole entry partner): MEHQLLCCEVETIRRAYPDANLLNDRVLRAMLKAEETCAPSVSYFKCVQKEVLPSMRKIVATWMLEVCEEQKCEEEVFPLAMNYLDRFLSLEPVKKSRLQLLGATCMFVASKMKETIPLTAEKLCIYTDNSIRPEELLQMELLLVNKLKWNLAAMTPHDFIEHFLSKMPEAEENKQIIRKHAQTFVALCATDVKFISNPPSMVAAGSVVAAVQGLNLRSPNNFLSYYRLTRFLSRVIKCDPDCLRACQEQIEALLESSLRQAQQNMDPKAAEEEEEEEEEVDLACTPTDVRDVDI
Sequence of human cyclin B-CDK1 (P06493 whole entry): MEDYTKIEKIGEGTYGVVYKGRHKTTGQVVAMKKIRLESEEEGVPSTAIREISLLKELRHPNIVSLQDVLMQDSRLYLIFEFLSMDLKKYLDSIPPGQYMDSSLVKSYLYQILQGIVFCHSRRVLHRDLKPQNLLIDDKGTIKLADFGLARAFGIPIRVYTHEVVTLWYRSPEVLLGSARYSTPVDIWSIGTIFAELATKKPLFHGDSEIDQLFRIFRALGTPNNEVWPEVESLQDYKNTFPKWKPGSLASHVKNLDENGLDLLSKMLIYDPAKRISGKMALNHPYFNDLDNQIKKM
Sequence of human cyclin B-CDK1 (P14635 whole entry partner): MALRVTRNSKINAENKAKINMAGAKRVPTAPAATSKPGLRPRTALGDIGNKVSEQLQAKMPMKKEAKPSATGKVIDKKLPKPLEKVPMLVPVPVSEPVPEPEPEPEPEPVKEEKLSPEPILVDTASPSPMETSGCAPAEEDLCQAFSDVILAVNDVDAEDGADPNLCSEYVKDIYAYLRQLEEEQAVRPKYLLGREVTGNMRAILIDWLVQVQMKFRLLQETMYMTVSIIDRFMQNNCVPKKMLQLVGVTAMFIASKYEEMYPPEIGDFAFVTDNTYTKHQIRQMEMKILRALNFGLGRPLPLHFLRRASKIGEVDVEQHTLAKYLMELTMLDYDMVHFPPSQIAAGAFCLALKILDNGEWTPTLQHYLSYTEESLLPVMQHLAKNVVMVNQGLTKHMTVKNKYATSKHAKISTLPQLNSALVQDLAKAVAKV

| SMILES | IC50 (human cyclin D1-CDK4) [nM] | IC50 (human cyclin E-CDK2) [nM] | IC50 (human cyclin B-CDK1) [nM] | IC50 [1, 2] [nM] | IC50 ([1]; HCT116 cells) [nM] |
| --- | --- | --- | --- | --- | --- |
| Nc1nc(Nc2ccc(OCCN3CCCC3)cc2)sc1C(=O)c1cccc(C(F)(F)F)c1 [Example 128, [4-Amino-2-[4-(2-pyrrolidin-1-yl-ethoxy)-phenylamino]-thiazol-5-yl]-(3-trifluoromethyl-phenyl)-methanone] | 65 | 1310 | 2050 | 4590 |  |
| CCc1cccc(C(=O)c2sc(Nc3ccc(OC4CCNC4)cc3)nc2N)c1 (centres unmarked) [Example 92, [4-Amino-2-[4-(pyrrolidin-3-yloxy)-phenylamino]-thiazol-5-yl)-(3-ethyl-phenyl)-methanone; Compound With Acetic Acid] | 51 | 495 | 538 | 1570 |  |
| Cc1cccc(C(=O)c2sc(Nc3ccc(OCCN4CCCC4)cc3)nc2N)c1 [Example 51, [4-Amino-2-[4-(2-pyrrolidin-1-yl-ethoxy)-phenylamino]-thiazol-5-yl]-m-tolyl-methanone] | 53 | 2930 | 1060 | 614 |  |
| CCCc1cc(C(=O)c2sc(Nc3ccc(OC[C@@H](C)N4CCCC4)cc3)nc2N)ccc1O [Example 110, (R)-[4-Amino-2-[4-(2-pyrrolidin-1-yl-propoxy)-phenylamino]-thiazol-5-yl]-(4-hydroxy-3-propyl-phenyl)-methanone; Compound With Acetic Acid] | 23 | 182 | 177 | 291 |  |
| CCN1CCC(Oc2ccc(Nc3nc(N)c(C(=O)c4cccc(C)c4)s3)cc2)C1 (centres unmarked) [Example 83, [4-Amino-2-[4-(1-ethyl-pyrrolidin-3-yloxy)-phenylamino]-thiazol-5-yl]-m-tolyl-methanone] | 49 | 499 | 980 | 1560 |  |
| Nc1nc(Nc2ccc(OC3CCNC3)cc2)sc1C(=O)c1cccc(F)c1 (centres unmarked) [Example 45, [4-Amino-2-[4-(pyrrolidin-3-yloxy)-phenylamino]-thiazol-5-yl]-(3-fluoro-phenyl)-methanone] | 39 | 589 | 158 | 1240 |  |
| CCOc1cccc(C(=O)c2sc(Nc3ccc(OCCN4CCCC4)cc3)nc2N)c1 [Example 62, [4-Amino-2-[4-(2-pyrrolidin-1-yl-ethoxy)-phenylamino]-thiazol-5-yl]-(3-ethoxy-phenyl)-methanone] | 33 | 4440 | 1810 | 1300 |  |
| C[C@H](COc1ccc(Nc2nc(N)c(C(=O)c3cccc(C4CC4)c3)s2)cc1)N(C)C [Example 70, (R)-[4-Amino-2-[4-(2-dimethylamino-propoxy)-phenylamino]-thiazol-5-yl]-(3-cyclopropyl-phenyl)-methanone] | 38 | 3140 | 2960 | 1930 |  |
| CCc1cccc(C(=O)c2sc(Nc3ccc(OCCN4CCCC4)cc3)nc2N)c1 [Example 53, [4-Amino-2-[4-(2-pyrrolidin-1-yl-ethoxy)-phenylamino]-thiazol-5-yl]-(3-ethyl-phenyl)-methanone] | 22 | 930 | 2990 | 402 |  |
| CCN1CCCC(Oc2ccc(Nc3nc(N)c(C(=O)c4cccc(C5CC5)c4)s3)cc2)C1 (centres unmarked) [Example 80, [4-Amino-2-[4-(1-ethyl-piperidin-3-yloxy)-phenylamino]-thiazol-5-yl]-(3-cyclopropyl-phenyl)-methanone] | 19 | 2280 | 1840 | 1720 |  |
| CCc1cccc(C(=O)c2sc(Nc3ccc(OCC(C)(C)N(C)C)cc3)nc2N)c1 [Example 61, [4-Amino-2-[4-(2-dimethylamino-2-methyl-propoxy)-phenylamino]-thiazol-5-yl]-(3-ethyl-phenyl)-methanone] | 46 | 1560 | 1210 | 954 |  |
| CCCc1cc(C(=O)c2sc(Nc3ccc(OC4CCN(CC)C4)cc3)nc2N)ccc1O (centres unmarked) [Example 89, [4-Amino-2-[4-(1-ethyl-pyrrolidin-3-yloxy)-phenylamino]-thiazol-5-yl]-(4-hydroxy-3-propyl-phenyl)-methanone; Compound With Acetic Acid] | 19 | 175 | 261 | 327 |  |
| CC(COc1ccc(Nc2nc(N)c(C(=O)c3cccc(F)c3)s2)cc1)N(C)C (centres unmarked) [Example 38, [4-Amino-2-[4-(2-dimethylamino-propoxy)-phenylamino]-thiazol-5-yl]-(3-fluoro-phenyl)-methanone] | 97 | 1380 | 576 | 436 |  |
| CC(C)NCCOc1ccc(Nc2nc(N)c(C(=O)c3ccc4c(c3)OCO4)s2)cc1 [Example 137, [4-Amino-2-[4-(2-isopropylamino-ethoxy)-phenylamino]-thiazol-5-yl]-benzo[1,3]dioxol-5-yl-methanone] | 19 | 2750 | 457 | 1730 |  |
| Nc1nc(Nc2ccc(OCCN3CCCC3)cc2)sc1C(=O)c1cccc(F)c1 [Example 36, [4-Amino-2-[4-(2-pyrrolidin-1-yl-ethoxy)-phenylamino]-thiazol-5-yl]-(3-fluoro-phenyl)-methanone] | 27 | 800 | 338 |  | 477 |
| Nc1nc(Nc2ccc(OCCN3CCCC3)cc2)sc1C(=O)c1ccc2c(c1)OCO2 [Example 57, [4-Amino-2-[4-(2-pyrrolidin-1-yl-ethoxy)-phenylamino]-thiazol-5-yl]-benzo[1,3]dioxol-5-yl-methanone] | 66 | 4890 | 376 | 2920 |  |
| CCCc1cc(C(=O)c2sc(Nc3ccc(OCCNCC)cc3)nc2N)ccc1O [Example 105, [4-Amino-2-[4-(2-ethylamino-ethoxy)-phenylamino]-thiazol-5-yl]-(4-hydroxy-3-propyl-phenyl)-methanone; Compound With Acetic Acid] | 18 | 176 | 112 | 390 |  |

From patent publication US6818663B2, “Diaminothiazoles” (Hoffmann-La Roches, priority 2002, dated 2004)
